Assay results from patent publication US8003688B2, “Method of treating symptoms of common cold, allergic rhinitis and infections relating to the respiratory tract” (ImmuPharm Aps, priority 2000, dated 2011).

Experiments:
[1] = tested on: rhinovirus (1A, 15 or 39); experiment: Antiviral activity against rhinovirus in WISH cells measured via the MTS-system; format: cell-based; details: challenge virus, MTS read-out, Quercetin at levels not toxic to the cells
Protocol: Rhinovirus 1A, rhinovirus 15 and rhinovirus 39 were titrated according to the tetra zolium salt (MTS)-method (Berg et al., 1989; Berg and Owen, 2001a, Hansen et al., 1989). WISH cells were seeded in a micro tray at 3000 cells per well and incubated at 37° C., 5% CO2 overnight; the following morning the medium Was replaced with 10-fold dilutions of either rhinovirus 1A, rhinovirus 15 or rhinovirus 39, respectively, in fresh medium and the trays were incubated 4-5 days at 33° C.; a microscopical examination confirmed that the CytoPathogenic Effect (CPE) was fully developed (CPE equal to 100%). […] To quantitate the CPE in terms of % destruction, MTS (Berg and Owen, 2001a) was added to all cultures and after 3 h incubation at 37° C. (without CO2) the trays were read in a scanner as previuosly described (Berg et al, 1989, Hansen et al., 1989). […]
WISH cells were seeded in wells in a microtray and incubated for 24 h at 34° C., 5% CO2; the medium was replaced with fresh medium comprising 2-fold dilutions of ZnGluconate (diluted 1:10 from a 1% stock dilutions) and incubated further for […] at 33° C., 5% CO2; on the following day challenge virus was added and after 3-5 days at 33° C., 5% , CO2, MTS was added and the microtray was measured in an OD-scanner (Berg et al., 1989; Hansen et al., 1989). […]

[2] = tested on: Rhino Virus (1A, 15 or 39); experiment: Potentiation of interferon antiviral activity vs. rhino virus in WISH cells; format: cell-based, rhinovirus; details: Troxerutin levels below 2.5 mg/ml added with 2-fold dilutions of interferon
Protocol: 3.000 WISH cells were seeded in a microtray and on the following morning, the medium was replaced with 2-fold dilutions (from a 0-30 units/ml stock solution) of HuIFN-α-2b (Intron A) in fresh medium comprising 2% serum. After incubation overnight, the medium was replaced with fresh medium comprising challenge virus and incubated at 33° C., 5% CO2 for 3-5 days and processed further as described in Example 2.
(§1) An experiment similar to Example 3 was carried out in which various, but constant concentrations of either Troxerutin or Veneruton or other relevant derivatives were added together with the 2-fold dilutions of interferon to WISH cells. A typical example from this series of experiments yielded no potentiation of the interferon system, (<1%) at all at Troxerutin levels below 2.5 mg/ml. Troxerutin concentrations higher than 2.5 mg/ml are toxic to the cells.

WISH cells = experiment: Toxicity to WISH cells; format: cell-based
Protocol: as §1

## O=C([O-])[C@H](O)[C@@H](O)[C@H](O)[C@H](O)CO.O=C([O-])[C@H](O)[C@@H](O)[C@H](O)[C@H](O)CO.[Zn+2] [ZnGluconate]
[1]
  protection against rhinovirus: < 2%

## C[C@@H]1O[C@@H](OC[C@H]2O[C@@H](Oc3c(-c4ccc(OCCO)c(OCCO)c4)oc4cc(OCCO)cc(O)c4c3=O)[C@H](O)[C@@H](O)[C@@H]2O)[C@H](O)[C@H](O)[C@H]1O [Troxerutin, troxerutin]
[2]
  potentiation of the interferon system: < 1%
WISH cells
  concentrations toxic to the cells: higher than 2.5 mg/ml
